Assay results: US8771724B2, “Percutaneous absorption enhancer and transdermal preparation using the same” (TOA EIYO Ltd., priority 2008, dated 2014)
Counter-ions that a name gives are not always drawn. Like-named read-outs stand apart in the source and are kept apart here.

Experimental: A permeation test was carried out based on the following procedure. First, an excised skin (Yucatan miniature swine or hairless mouse) was placed in a vertical diffusion cell in which temperature was kept at 37° C., and a receptor phase was filled with 7 mL of a phosphate-buffered saline (PBS, a pH of 7.5). The whole was left to stand still for one hour. […] Then, the test was started. […] Note that after each of the collections, an equivalent amount of PBS was supplemented into the receptor phase. Each PBS collected from the receptor phase was measured for a drug concentration by an HPLC method. […] Further, the slant of a permeation curve at the time when the permeation rate reached a steady state was used to calculate a skin permeation rate (μg/hr/cm^2).
An enhancing effect on drug permeation was evaluated for the case where a 1% isopropyl myristate solution was used as a control and for the case where 1% each of n-octyl-β-D-thioglucopyranoside and dioctyl sodium sulfosuccinate was added.

SMILES	Percutaneous absorption enhancing action (Example/Comparative Example), cumulative permeation amount for 24 hours (hairless, mouse, 24 h, pH 7.5) [times]	Percutaneous absorption enhancing action (Example/Comparative Example), skin permeation rate (hairless, mouse, pH 7.5)	Percutaneous absorption enhancing action (Example/Comparative Example), cumulative permeation amount for 24 hours [times]	Percutaneous absorption enhancing action (Example/Comparative Example), skin permeation rate [times]
CC(=O)N[C@H]1[C@H]([C@H](O)[C@H](O)CO)OC(C(=O)O)=C[C@@H]1N=C(N)N [Zanamivir hydrate, zanamivir hydrate]	47	92 times	–	–
CCOc1cc(CC(=O)N[C@@H](CC(C)C)c2ccccc2N2CCCCC2)ccc1C(=O)O [Repaglinide, repaglinide]	27	33 times	–	–
CN(Cc1cnc2nc(N)nc(N)c2n1)c1ccc(C(=O)N[C@@H](CCC(=O)O)C(=O)O)cc1 [Methotrexate, methotrexate]	250	180 times	–	–
CCOC(=O)[C@H](CCc1ccccc1)N[C@@H](C)C(=O)N1[C@H](C(=O)O)C[C@@H]2CCC[C@@H]21 [Ramipril, ramipril]	5	8 times	–	–
CCOC(=O)[C@H](CCc1ccccc1)N[C@@H](C)C(=O)N1C(=O)N(C)C[C@H]1C(=O)O [Imidapril hydrochloride, imidapril hydrochloride]	12	40 times	–	–
N[C@@H](C(=O)N[C@@H]1C(=O)N2C(C(=O)O)=C(Cl)CS[C@H]12)c1ccccc1 [Cefaclor, cefaclor]	420	962 times	–	–
CC(C)n1c(/C=C/C(O)CC(O)CC(=O)O)c(-c2ccc(F)cc2)c2ccccc21 (centres unmarked) [Fluvastatin sodium, fluvastatin sodium]	28	54 times	–	–
CCCCC(=O)N(Cc1ccc(-c2ccccc2-c2nnn[nH]2)cc1)[C@H](C(=O)O)C(C)C [Valsartan, valsartan]	4	12 times	–	–
CNC[C@H](O)c1cccc(O)c1 [Phenylephrine hydrochloride, phenylephrine hydrochloride]	4	8 times	–	–
Cc1cccc(Nc2ccncc2S(=O)(=O)NC(=O)NC(C)C)c1 [Torasemide, torasemide]	29	40 times	–	–
CC1(C)S[C@@H]2[C@H](NC(=O)[C@H](N)c3ccc(O)cc3)C(=O)N2[C@H]1C(=O)O [Amoxicillin trihydrate, amoxicillin trihydrate]	234	254 times	–	–
COc1cc(N)cn[n+]1-c1ccccc1 [Amezinium metilsulfate, amezinium metilsulfate]	7	24 times	–	–
N[C@@H](Cc1ccc(O)c(O)c1)C(=O)O [Levodopa, levodopa]	461	289 times	–	–
C[C@]1(Cn2ccnn2)[C@H](C(=O)O)N2C(=O)C[C@H]2S1(=O)=O [Tazobactam, tazobactam]	6	21 times	–	–
CCC[C@H](N[C@@H](C)C(=O)N1[C@H](C(=O)O)C[C@@H]2CCCC[C@@H]21)C(=O)OCC [Perindopril erbumine, perindopril erbumine]	3	12 times	–	–
NNc1nncc2ccccc12 [Hydralazine hydrochloride, hydralazine hydrochloride]	344	1,411 times	–	–
CC(C)c1nc(N(C)S(C)(=O)=O)nc(-c2ccc(F)cc2)c1/C=C/[C@@H](O)C[C@@H](O)CC(=O)[O-].CC(C)c1nc(N(C)S(C)(=O)=O)nc(-c2ccc(F)cc2)c1/C=C/[C@@H](O)C[C@@H](O)CC(=O)[O-].[Ca+2] [Rosuvastatin calcium, rosuvastatin calcium]	–	–	46	138
NS(=O)(=O)c1cc(C(=O)O)cc(N2CCCC2)c1Oc1ccccc1 [Piretanide, piretanide]	34	51 times	–	–
CCOc1nc2cccc(C(=O)O)c2n1Cc1ccc(-c2ccccc2-c2nnn[nH]2)cc1 [Candesartan, candesartan]	15	183 times	–	–
CCOC(=O)[C@H](CCc1ccccc1)N[C@H]1CCCN2CCC[C@@H](C(=O)O)N2C1=O [Cilazapril, cilazapril]	13	16 times	–	–
COc1ccccc1N1CCN(CCCNc2cc(=O)n(C)c(=O)n2C)CC1 [Urapidil, urapidil]	20	18 times	–	–
CCOC(=O)[C@H](CCc1ccccc1)N[C@@H](C)C(=O)N1CCC[C@H]1C(=O)O [Enalapril maleate, enalapril maleate]	4	44 times	–	–
CCOC(=O)[C@H](CCc1ccccc1)N[C@@H](C)C(=O)N(CC(=O)O)C1Cc2ccccc2C1 [Delapril hydrochloride, delapril hydrochloride]	42	26 times	–	–
CCOC(=O)[C@H](CCc1ccccc1)N[C@H]1CS[C@H](c2cccs2)CN(CC(=O)O)C1=O [Temocapril hydrochloride, temocapril hydrochloride]	27	46 times	–	–
CCCc1nc(C(C)(C)O)c(C(=O)OCc2oc(=O)oc2C)n1Cc1ccc(-c2ccccc2-c2nnn[nH]2)cc1 [Olmesartan medoxomil, olmesartan medoxomil]	75	94 times	–	–
